The values below are quoted from earlier work in EP4368198A1, “COMPOSITION FOR DELIVERING A PROTEIN OR A POLYPEPTIDE TO A EUKARYOTIC CELL” (Klinikum der Universität München, priority 2022, dated 2024).

The conditions of this data set: normalized, most hydrophobic residue 100, glycine 0, Monera et al. 1995.

As to `O=C(O)[C@@H]1CCCN1` [Proline (pro), Proline], the “hydrophobicity index At pH 7” value is -46 (used pH 2).
